As a reminder, the IC50 is the concentration needed to halve the response being measured. A high value points to weaker potency.

A value given as a limit tells only on which side of the number the result lay.

This assay concerns the target T1, PARP7 (Homo sapiens, UniProt Q7Z3E1).
T1 sequence (Q7Z3E1 1-657): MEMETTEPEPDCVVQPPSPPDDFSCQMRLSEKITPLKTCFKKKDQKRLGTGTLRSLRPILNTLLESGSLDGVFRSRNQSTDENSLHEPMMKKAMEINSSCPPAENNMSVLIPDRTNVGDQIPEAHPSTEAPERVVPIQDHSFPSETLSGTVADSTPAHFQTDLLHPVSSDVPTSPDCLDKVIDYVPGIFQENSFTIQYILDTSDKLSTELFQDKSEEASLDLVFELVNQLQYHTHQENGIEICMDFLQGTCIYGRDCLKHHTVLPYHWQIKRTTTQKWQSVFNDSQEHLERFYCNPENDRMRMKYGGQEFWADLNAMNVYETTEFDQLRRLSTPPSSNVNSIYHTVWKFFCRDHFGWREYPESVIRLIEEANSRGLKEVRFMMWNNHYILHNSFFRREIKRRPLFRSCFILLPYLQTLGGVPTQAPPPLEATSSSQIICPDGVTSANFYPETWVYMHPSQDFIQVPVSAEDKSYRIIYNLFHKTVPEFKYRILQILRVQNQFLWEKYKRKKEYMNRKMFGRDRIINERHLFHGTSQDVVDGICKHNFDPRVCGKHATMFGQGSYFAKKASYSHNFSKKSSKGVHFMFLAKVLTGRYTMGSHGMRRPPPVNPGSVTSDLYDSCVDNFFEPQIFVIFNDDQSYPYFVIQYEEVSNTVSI
The assay can be described thus: PARP7 TR-FRET assay (binding, displacement of biotinylated Probe A). The note with it: 6 nM PARP7, 2 nM Probe A, 25° C., 30 min. How it is done: Biological Assay Example A: PARP7 TR-FRET Assay
A time-resolved fluorescence energy transfer (TR-FRET) assay was used to test binding activity of compounds to PARP7. Two microliter test compound was added in 384-well plate. Reactions were performed in a 6 uL volume by adding 4 uL mixture of PARP7 and Probe A (a biotinylated probe binding to the PARP7: N-(6-(2-(4-((2-(6-oxo-5-(trifluoromethyl)-1,6-dihydropyridazin-4-yl) isoindolin-5-yl) oxy) piperidin-1-yl) acetamido) hexyl)-5-((3aS,4S,6aR)-2-oxohexahydro-1H-thieno [3,4-d]imidazol-4-yl) pentanamide, made as reported in WO2019212937A1) in assay buffer (20 mM HEPES pH 8.0, 100 mM NaCl, 0.1% BSA, 2 mM DTT and 0.002% Tween20). The final concentration of PARP7 and Probe A were 6 nM and 2 nM, incubating with test compounds at 25° C. for 30 min. Four microliter ULight-anti 6xHis and LANCE Eu-W1024 labeled streptavidin (PerkinElmer) were added with the final concentration of ULight-anti 6xHis and LANCE Eu-W1024 at 4 nM and 0.25 nM. The reaction mixture was incubated at 25° C. for 30 min. The plate was read on a Tecan Spark plate reader (excitation wavelength at 320 nm, emission wavelength at 615 nm and 665 nm with a 90 us delay. The ratio of the 665/615 nm emission was calculated for each well to the amount of complex of PARP7 and Probe A in each well was calculated. The 0.25% DMSO vehicle was used as control and no PARP7 well was as blank well. Inhibition rate is calculated with the formula of % inhibition=100-100*(TRFcmpd-TRFblank)/(TRFcontrol−TRFblank). Inhibition IC50 is calculated with the equation of Y=Bottom+ (Top-Bottom)/(1+10^((LogIC50−X) *Hill Slope))
For orientation: TR-FRET usually uses a lanthanide donor and a delayed reading to cut background.
`C[C@@H]1CN(C(=O)c2cc(Oc3n[nH]c(=O)c(C(F)(F)F)c3N3CC4(C3)CC(F)(F)C4)ccn2)CCN1c1ncc(C(F)(F)F)cn1` [Compound 318] had a concentration for half-maximal inhibition (IC50) of under 100 nM.
On to `O=C(c1cncc(Oc2n[nH]c(=O)c(C(F)(F)F)c2N2CC(C3CC3)C2)c1)N1CCN(c2ncc(C(F)(F)F)cn2)CC1` [Compound 278], for which the concentration for half-maximal inhibition (IC50) is under 100 nM.
As for `C[C@@H]1CN(C(=O)c2cccc(Oc3n[nH]c(=O)c(C(F)(F)F)c3N3CC4(C3)CC(F)(F)C4)c2)CCN1c1ncc(C#N)cn1` [Compound 341], the figure is under 100 nM.
As for `C#Cc1c(C)c(N2CCOC(CC(=O)N3CCN(c4ncc(C(F)(F)F)cn4)CC3)C2)n[nH]c1=O` (single isomer, unassigned) [Compound 89], the figure is under 100 nM; as for `O=C(CC1CN(c2cc(C(F)(F)F)c(=O)[nH]n2)c2cc(Cl)ccc2O1)N1CCN(c2ncc(C(F)(F)F)cn2)CC1` (single isomer, unassigned) [Compound 132], under 100 nM; as for `O=C(CC1CN(c2n[nH]c(=O)c3cc(OCC(F)F)ccc23)CCO1)N1CCN(c2ncc(C(F)(F)F)cn2)CC1` (single isomer, unassigned) [Compound 209], over 1000 nM.
Then `Cc1ccc2c(=O)[nH]nc(N3CCOC(CC(=O)N4CCN(c5ncc(C(F)(F)F)cn5)CC4)C3)c2c1` (single isomer, unassigned) [Compound 102], with under 100 nM.
The compound `C[C@@H]1CN(C(=O)CC2CN(c3cc(C(F)(F)F)c(=O)[nH]n3)c3cc(C#N)ccc3O2)CCN1c1ncc(C(F)(F)F)cn1` (single isomer, unassigned) [Compound 152] gave an IC50 of under 100 nM.
`COCC1CN(c2c(Oc3cccc(C(=O)N4CCN(c5ncc(C(F)(F)F)cn5)CC4)c3)n[nH]c(=O)c2C(F)(F)F)C1` [Compound 186]: the IC50 is under 100 nM.
The compound `COC[C@@H]1C[C@H](OCC(=O)N2CCN(c3ncc(C(F)(F)F)cn3)CC2)c2n[nH]c(=O)c(C(F)(F)F)c2O1` [Compound 116] showed an IC50 of 100 to 1000 nM.
Then `N#Cc1ccc(N2CCN(C(=O)CC3CN(c4cc(C(F)(F)F)c(=O)[nH]n4)c4ccccc4O3)CC2)nc1` (single isomer, unassigned) [Compound 221], with under 100 nM; and `Cc1ccc(Oc2n[nH]c(=O)c(C(F)(F)F)c2C)cc1C(=O)N1CCN(c2ncc(C(F)(F)F)cn2)CC1` [Compound 65], with under 100 nM.
The compound `N#CC1CN(c2c(Oc3cccc(C(=O)N4CCN(c5ncc(C(F)(F)F)cn5)CC4)c3)n[nH]c(=O)c2C(F)(F)F)C1` [Compound 60] came in with an IC50 of under 100 nM.
As for `C#CC1CN(c2c(Oc3cccc(C(=O)N4CCN(c5ncc(C(F)(F)F)cn5)CC4)c3)n[nH]c(=O)c2C(F)(F)F)C1` [Compound 185], the figure is under 100 nM; as for `O=C(CC1CN(c2cc(C(F)(F)F)c(=O)[nH]n2)c2ccccc2O1)N1CCN(c2ncc(Cl)cn2)CC1` (single isomer, unassigned) [Compound 295], 100 to 1000 nM.
`O=C(CC1CN(c2n[nH]c(=O)c3cccnc23)CCO1)N1CCN(c2ncc(C(F)(F)F)cn2)CC1` (single isomer, unassigned) [Compound 124]: the IC50 is over 1000 nM.
`CN1C[C@H](OCC(=O)N2CCN(c3ncc(C(F)(F)F)cn3)CC2)c2n[nH]c(=O)c3cc(F)cc1c23` (single isomer, unassigned) [Compound 13] came in with an IC50 of 100 to 1000 nM.
`C[C@H]1CN(c2n[nH]c(=O)c3cccc(F)c23)C[C@@H](CC(=O)N2CCN(c3ncc(C(F)(F)F)cn3)CC2)O1` (stereo in doubt) [Compound 120] displayed an IC50 of 100 to 1000 nM.
Then `C#Cc1c2c(n[nH]c1=O)[C@H](OCC(=O)N1CCN(c3ncc(C(F)(F)F)cn3)CC1)CCO2` [Compound 12], with under 100 nM; and `O=C(c1cncc(Oc2n[nH]c(=O)c(C(F)(F)F)c2N2CC3(CCC3)C2)c1)N1CCN(c2ncc(C(F)(F)F)cn2)CC1` [Compound 84], with under 100 nM.
As for `O=C(CC1CN(c2cc(C(F)(F)F)c(=O)[nH]n2)CCC1(F)F)N1CCN(c2ncc(C(F)(F)F)cn2)CC1` (single isomer, unassigned) [Compound 80], the figure is under 100 nM; as for `O=C(CC1CN(c2n[nH]c(=O)c3ccc(OCC(F)F)cc23)CCO1)N1CCN(c2ncc(C(F)(F)F)cn2)CC1` (single isomer, unassigned) [Compound 211], under 100 nM; as for `O=C(CC1CN(c2n[nH]c(=O)c3c(F)cccc23)CCO1)N1CCN(c2ncc(C(F)(F)F)cn2)CC1` (single isomer, unassigned) [Compound 109], under 100 nM.
Then `N#CC1(c2ccnc(N3CCN(C(=O)CC4CN(c5cc(C(F)(F)F)c(=O)[nH]n5)c5cc(F)ccc5O4)CC3)n2)CC1` (single isomer, unassigned) [Compound 344], with over 1000 nM; and `O=C(CC1CN(c2n[nH]c(=O)c3ccc(F)cc23)CCO1)N1CCN(c2ncc(C(F)(F)F)cn2)CC1` (single isomer, unassigned) [Compound 51], with 100 to 1000 nM.
Compound `CC1(C)CN(c2c(Oc3cccc(C(=O)N4CCN(c5ncc(C(F)(F)F)cn5)CC4)c3)n[nH]c(=O)c2C(F)(F)F)C1` [Compound 174] yielded an IC50 of under 100 nM.
As for `O=C(CC1CN(c2cc(C(F)(F)F)c(=O)[nH]n2)c2cc(F)ccc2O1)N1CCN(c2ncc(C(F)(F)F)cn2)CC1` (single isomer, unassigned) [Compound 130], the figure is under 100 nM; as for `CNCc1ccc2c(c1)N(c1cc(C(F)(F)F)c(=O)[nH]n1)CC(CC(=O)N1CCN(c3ncc(C(F)(F)F)cn3)CC1)O2` (single isomer, unassigned) [Compound 298], 100 to 1000 nM; as for `O=C(CC1CN(c2cc(C(F)(F)F)c(=O)[nH]n2)c2ccccc2O1)N1CCN(c2cnc(C(F)(F)F)cn2)CC1` (single isomer, unassigned) [Compound 262], under 100 nM.
As for `O=C(CC1CN(c2cc(C(F)(F)F)c(=O)[nH]n2)c2ccccc2O1)N1CCN(c2nnc(C(F)(F)F)s2)CC1` (single isomer, unassigned) [Compound 287], the figure is 100 to 1000 nM; as for `C[C@H]1CN(c2ncc(C(F)(F)F)cn2)CCN1C(=O)c1cccc(Oc2n[nH]c(=O)c(C(F)(F)F)c2N2CC3(CCO3)C2)c1` [Compound 255], under 100 nM.
Regarding `O=C(CC1CN(c2cc(C(F)(F)F)c(=O)[nH]n2)c2cc(N3CCOCC3=O)ccc2O1)N1CCN(c2ncc(C(F)(F)F)cn2)CC1` (single isomer, unassigned) [Compound 281], the IC50 was under 100 nM.
Then `O=C(CC1CN(c2cc(C(F)(F)F)c(=O)[nH]n2)c2ccc(F)cc2O1)N1CCN(c2ncc(C(F)(F)F)cn2)CC1` (single isomer, unassigned) [Compound 157], with under 100 nM; and `N#CC1(c2ccc3c(c2)N(c2cc(C(F)(F)F)c(=O)[nH]n2)CC(CC(=O)N2CCN(c4ncc(C(F)(F)F)cn4)CC2)O3)CC1` (single isomer, unassigned) [Compound 137], with under 100 nM.
Turning to `N#Cc1cnc(N2CCN(C(=O)CC3CN(c4cc(C(F)(F)F)c(=O)[nH]n4)c4cc(F)ccc4O3)CC2)nc1` (single isomer, unassigned) [Compound 265], the IC50 was 100 to 1000 nM.
As for `N#CC1(c2ccc3c(c2)N(c2cc(C(F)(F)F)c(=O)[nH]n2)CC(CC(=O)N2CCN(c4ncc(C(F)(F)F)cn4)CC2)O3)CC1` (single isomer, unassigned) [Compound 338], the figure is under 100 nM; as for `Cn1cc(-c2ccc3c(c2)N(c2cc(C(F)(F)F)c(=O)[nH]n2)CC(CC(=O)N2CCN(c4ncc(C(F)(F)F)cn4)CC2)O3)cn1` (single isomer, unassigned) [Compound 192], under 100 nM.
Then `O=C(CCO[C@@H]1CCNc2c1n[nH]c(=O)c2C(F)(F)F)N1CCN(c2ncc(C(F)(F)F)cn2)CC1` (single isomer, unassigned) [Compound 6], with under 100 nM.

(Values after patent US20240343727A1, “PYRIDAZINONE OR PYRIDINONE COMPOUNDS, PREPARATION METHODS AND USES THEREOF” (InventisBio Co., Ltd., priority 2021, published 2024).)
